Patent US5025036A, “Catechol carboxylic acids” (Hoffmann-La Roche Inc., priority 1989, dated 1991)

How the values were obtained:
[1] = system: cardiac lipid peroxidation; test: In vitro testing of antiperoxidative agents (cardiac lipid peroxidation); assay type: biochemical; settings: rat cardiac liposomes, 60 minutes, 37° C., pH 7.4; read-out: Inhib. of Lipid Peroxidation IC50
Method: The test system employs hypoxanthine-xanthine oxidase (XO)-Fe^3+. ADP as the free radical generator and purified, native rat-heart membrane phosphoglyceride in Hepes-KCl buffer, pH 7.4, as the substrate. Inhibition of superoxide-dependent, iron-promoted lipid peroxidation in the linear reaction phase (after 1 hour of reaction) is measured as the net formation of thiobarbituric acid (TBA)-reactive material. In this system, the TBA-reactive material, isolated by HPLC, is exclusively (>95%) malondialdehyde (MDA), a fragmentation end-product arising from fatty acyl hydroperoxides and cyclic endoperoxides.
Conscious male Sprague-Dawley rats (~275 g) maintained on a normal rodent diet were decapitated. The hearts were rapidly removed and perfused via the aorta with ice-cold 10 mM Hepes buffer, pH 7.4. The aorta and atria were removed, and the ventricular tissue was blotted and weighed (wet weight). The hearts were minced on ice with scissors and finally homogenized (100 mg tissue/ml ice-cold buffer) for 15 seconds (3×5 seconds) with a Tekmar Tissumizer at "maximal" setting. The homogenate was filtered through 4-ply cheesecloth, and homogenate lipids were extracted and purified by a modified Bligh-Dyer procedure (M. D. Marshall and M. Kates, Biochem. Biophys. Acta 260, 558 (1972). The cardiac lipids were stored in CHCl3 under nitrogen at -20° C.
Liposomes were prepared from extracted and purified, native rat heart cardiac lipid and were used as substrate for free-radical attack. Cardiac lipid (in CHCl3) was placed in a glass flask and evaporated to dryness under nitrogen at room temperature; the flask was gently rotated during evaporation to yield a thin, dry lipid film. The lipid was taken up in 10 mM Hepes-0.145M CKl, pH 7.4, and was resuspended by indirect anaerobic sonication for 15 minutes at room temperature. The liposome suspension was used immediately.
A chelate was formed in Hepes-KCl buffer between Fe^3+ (1.0 mM FeCl3, final concentration) and ADP (10 mM, final concentration) at pH 7.4 with stirring at room temperature. Chelation was allowed to proceed for 90 minutes prior to use. The chelate was prepared fresh for each days experiments to ensure iron solubility, effective chelation, and valence state.
Malondialdehyde (MDA) equivalents were measured as thiobarbituric acid (TBA)-reactive material by the following modification of published methods. The reaction mixture, prepared fresh daily, contained water:BHT ([…] BHT in absolute ethanol):TBA (1.5% TBA in 0.2M Tris, pH 7.0) in the volume ratio 1:1:5. To each 1.0 ml of peroxidation reaction assayed (see below), 0.35 ml reaction mixture was added. After thorough mixing, the tubes were incubated in an 80° C. shaking water bath for 30 minutes. After this time, the tubes were plunged into an ice water bath, and the reaction was immediately stopped with 0.5 ml ice-cold 91% TCA followed by 2.0 ml CHCl3. After centrifugation for 30 minutes at 2000 rpm in a Sorval HL-8 rotor (4° C.), the absorbance of the washed, pink upper phase was read at 532 nm. A standard curve (0.8-40.0 nmol MDA) was run with every assay. For each curve, MDA was freshly prepared by acidification of 1,1,3,3-tetraethoxypropane with 75% TCA-2.3N HCl (0.15 ml acid mixture with 1.0 ml suitably diluted tetraethoxypropane). Computer-assisted regression analysis of the standard curve was used to quantify the molar amounts of MDA equivalents in the experimental samples.
Cardiac liposomes were subjected to superoxide-dependent, iron-promoted peroxidation in glass vessels to avoid the well-known antioxidant effects of many common polymerizing agents used to fabricate plastic labware. Screening was performed in triplicate in glass 12×75 mm tubes at a final reaction volume of 1.0 ml and a reaction time of 60 minutes. […]

[2] = Antibiotic-Induced Colitis in Hamsters, In Vivo; parameters: species or system male Syrian hamsters (LUG); settings: >1.0 = therapy prolongs survival, ** p < 0.01
Method: Male Syrian hamsters (LUG), weighing 80 to 120 g were each given a single dose of 175 mg/kg of clindamycin-phosphate or of clindamycin-hydrochlorideintraperitoneally, to induce colitis. Approximately seven hours after injection, the animals were given the test compound orally or intraperitoneally and the therapy was continued twice a day for a period of four more days. For oral administration, the […] was suspended in water or dissolved in dimethylsulfoxide and delivered to the animals by gavage using an oral intubating needle. The effect of the therapy was measured by use of the Hazard Ratio, which is the ratio of the mortality of the animals treated with the test inhibitor compound contained in a vehicle to the mortality of the animals treated with the vehicle containing none of the test inhibitor compound. The mortality was determined for the test inhibitor compound-treated groups and for the vehicle-treated groups, respectively, twice daily, and was evaluated by comparing the survival curves of each group. The Kaplan-Meier estimate of the survival curve was calculated for each group and the Mantel-Cox (logrank) test was used to compare the survival curve of each test inhibitor compound-treated (therapy) group to that of the corresponding vehicle control group. […] (See, J. G. Bartlett et al. Amer. J. Vet. Res. 39: 1525-1530 (1978)).

| Structure (SMILES) | IC50 [1] | Hamster Colitis Model Hazard Ratio ([2]; 10 mg/kg p.o) | Hamster Colitis Model Hazard Ratio ([2]; 100 mg/kg p.o) |
| --- | --- | --- | --- |
| CCCc1c(OCCCCc2cccc(O)c2O)ccc(C(C)=O)c1O [1-[2-Hydroxy-4-[4-(2,3-dihydroxyphenyl)butoxy]-3-propylphenyl]ethanone] | > 1 µM |  |  |
| CCCc1c(OCCCCCCc2ccc(C(C)C)c(O)c2O)ccc(C(C)=O)c1O [1-[2-hydroxy-4 [6-[2,3 dihydroxy-4-(1-methylethyl)phenyl]hexyloxy]-3 propylphenyl]ethanone] | 0.7 µM |  |  |
| CCCc1c(OCCCCCCc2cccc(O)c2O)ccc(C(C)=O)c1O [1-[2-hydroxy-4-[6-(2,3-dihydroxyphenyl)hexyloxy]-3-propylphenyl]ethanone] | 0.7 µM |  |  |
| CCCc1c(OCCCCc2cccc(O)c2O)ccc(C(=O)O)c1O [4-[4-(2,3-dihydroxyphenyl)butoxy]-2-hydroxy-3-propylbenzoic acid] | 0.5 µM | 1.35 | 0.1 |
| CCCc1c(OCCCCCCc2cccc(O)c2O)ccc(C(=O)O)c1O [4-[6-(2,3-Dihydroxyphenyl)hexyloxy]-2-hydroxy-3-propylbenzoic acid] | 0.3 µM | 2.26 | 4.22 |
| O=C(O)c1ccc(OCCCCCCc2cccc(O)c2O)cc1O [4-[6-(2,3-Dihydroxyphenyl)hexyloxy]-2-hydroxybenzoic acid] | > 1 µM |  |  |
| O=C(O)c1ccc(OCCCCCCc2cccc(O)c2O)cc1 [4-[6-(2,3-Dihydroxyphenyl)hexyloxy]benzoic acid] | > 1 µM |  |  |
| CCCc1c(OCCCCCCc2ccc(O)c(O)c2)ccc(C(=O)O)c1O [4-[6-(3,4-dihydroxyphenyl)hexyloxy]-2-hydroxy-3-propylbenzoic acid] | 0.6 µM |  |  |
| CCCc1c(OCCCCCCc2ccc(C(C)C)c(O)c2O)ccc(C(=O)O)c1O [4-[6-[2,3-dihydroxy-4-(1-methylethyl)phenyl]hexyloxy]-2-hydroxy-3-propylbenzoic acid] | 0.7 µM |  |  |
| CCCc1c(OCCCCCCCCc2cccc(O)c2O)ccc(C(=O)O)c1O [4-[8-(2,3-dihydroxyphenyl)octyloxy]-2-hydroxy-3-propylbenzoic acid] | 0.3 µM |  |  |
| CCCc1c(OCCCCCCCCCCc2cccc(O)c2O)ccc(C(=O)O)c1O [4-[10-(2,3-dihydroxyphenyl)decyloxy]-2-hydroxy-3-propylbenzoic acid] | 0.4 µM |  |  |
